# Measured values as given in patent US11447445B2, “Diabetes and metabolic syndrome treatment with a novel dual modulator of soluble epoxide hydrolase and peroxisome proliferator-activated receptors” (priority 2015, dated 2022).
# Like-named read-outs stand apart in the source and are kept apart here.
# Legend:
# 3T3-L1 fibroblasts = assay: Adipocyte differentiation of murine 3T3-L1 cells (Oil Red O staining); assay type: cell-based; conditions: 1c 1-10 μM; CIU 10 μM
# Protocol: 3T3-L1 cells were subcultured in DMEM containing 10% newborn calf serum in a humidified atmosphere at 37° C., 5% CO2. […] Briefly, cells were seeded in 6-well plates (2.5×10^6/well). Differentiation was started at day 3 by addition of 1 μg/ml insulin, 0.25 dexamethasone and 0.5 mM isobutylmethylxanthine in DMEM supplemented with 10% fetal calf serum. At day 5 medium was replaced by medium containing only insulin for 2 more days. After this, cells were kept for lipid droplet accumulation in basal medium without additions until day 15.
# [1] = tested on: human primary preadipocytes; assay: Adipocyte differentiation of human primary preadipocytes (Oil Red O staining); assay type: cell-based; conditions: 1c 1-10 μM; CIU 10 μM
# Protocol: Human primary preadipocytes were obtained from stromal vascular fraction of subcutaneous fat from anonymous donors undergoing elective cosmetic surgery. Adipose tissue was digested by collagenase solution (0.3 U/ml in 1% BSA/PBS) for 45 min at 37° C. with constant shaking. Floating mature adipocytes were removed and the pellet containing the stromal vascular fraction was resuspended in erythrocyte lysis buffer. […] After 4 days the medium was changed to 3FC medium (QuickDiff medium without dexamethasone, IBMX and rosiglitazone). Adipocytes were cultured for additional 14 days before medium was changed to basal medium consisting of DMEM/Ham's F12 with biotin and panthotenate. This investigation conforms to the ethical principles outlined in the Declaration of Helsinki and was approved by the university ethics committee (Ethik-Kommission des Fachbereichs Medizin der Goethe-Universitat Frankfurt am Main). Total RNA was isolated using PeqGold RNAPure (Peqlab) according to manufacturer's instructions and was transcribed to cDNA using Maxima First Strand cDNA synthesis kit (Thermo Scientific), following manufacturer's instructions. Quantitative PCR was performed with iQ SYBR green Supermix (Bio-Rad) using a CFX96 (Bio-Rad) system. Expression was normalized to actin RNA.
# recombinant human sEH = biological target: T1, recombinant human sEH (Homo sapiens, UniProt P34913); assay: biochemical
# T1 sequence (P34913 1-555): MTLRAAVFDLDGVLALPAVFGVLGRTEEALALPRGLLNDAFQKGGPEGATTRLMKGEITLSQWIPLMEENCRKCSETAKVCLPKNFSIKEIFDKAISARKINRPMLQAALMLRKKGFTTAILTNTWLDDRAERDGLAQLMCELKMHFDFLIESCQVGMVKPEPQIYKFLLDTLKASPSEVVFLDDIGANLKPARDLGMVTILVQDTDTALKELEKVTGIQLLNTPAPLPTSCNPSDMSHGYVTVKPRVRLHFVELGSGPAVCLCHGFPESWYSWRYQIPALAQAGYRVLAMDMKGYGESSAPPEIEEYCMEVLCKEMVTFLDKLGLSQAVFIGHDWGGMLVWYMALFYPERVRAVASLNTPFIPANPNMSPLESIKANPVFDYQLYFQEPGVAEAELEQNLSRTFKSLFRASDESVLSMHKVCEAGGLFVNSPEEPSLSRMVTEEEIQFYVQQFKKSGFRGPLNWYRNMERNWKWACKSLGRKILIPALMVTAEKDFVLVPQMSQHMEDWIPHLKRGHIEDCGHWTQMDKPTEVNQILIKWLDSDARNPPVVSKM
# PPARα = biological target: T2, PPARα (Homo sapiens, UniProt Q07869); assay type: cell-based
# T2 construct: expressed in transfected cells; host or cells: COS-7
# T2 sequence (Q07869 239-466): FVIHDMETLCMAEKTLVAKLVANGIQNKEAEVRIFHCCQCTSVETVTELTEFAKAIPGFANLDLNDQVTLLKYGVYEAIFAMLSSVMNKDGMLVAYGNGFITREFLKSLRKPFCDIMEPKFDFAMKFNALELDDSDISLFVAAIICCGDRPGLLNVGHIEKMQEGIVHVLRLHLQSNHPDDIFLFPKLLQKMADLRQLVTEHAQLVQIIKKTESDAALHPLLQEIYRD
# PPARδ = biological target: T3, PPARδ (Homo sapiens, UniProt Q03181); assay: PPAR transactivation assay in COS-7 cells (Gal4-hPPAR-LBD, luciferase); assay type: cell-based
# T3 construct: expressed in transfected cells; host or cells: COS-7
# T3 sequence (Q03181 211-439): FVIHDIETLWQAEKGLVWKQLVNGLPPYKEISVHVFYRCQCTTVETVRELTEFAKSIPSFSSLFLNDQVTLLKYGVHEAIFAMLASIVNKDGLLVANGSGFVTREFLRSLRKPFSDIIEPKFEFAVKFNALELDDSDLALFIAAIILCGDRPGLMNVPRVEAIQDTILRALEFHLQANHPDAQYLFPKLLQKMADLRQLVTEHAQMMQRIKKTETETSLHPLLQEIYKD
# [2] = after p.o. 30 mg/kg bw of 1b, all time points
# Protocol: Blood was sampled 15 min, 30 min, 1 h, 2 h, 4 h and 8 h after test item application and only 8 h after vehicle application. Each drug treated mouse was sampled twice (0.25 and 0.5 h, 1 and 2 h, 4 and 8 h) via retro orbital puncture. Blood was collected in tubes containing lithium-heparin, stored on ice and subsequently centrifuged at 6000 rpm for 10 minutes at 4° C. (Heraeus biofuge fresco). The plasma was prepared within 45 min after sampling and kept at −20° C. until being assayed. For further kinetic and dynamic analysis the tissues (brain, liver, abdominal fat) were collected 30 min, 2h and 8 h post dose, after the second plasma sampling of each drug treated mouse. Tissue of the vehicle group was sampled only once, 8 h post dose. A volume of 40 μl acetonitrile containing the internal standard (300 ng/ml Diazepam) was added to 20 μl of mouse plasma sample, plasma calibration standard and plasma QC samples. Samples were vigorously shaken and centrifuged for 10 minutes at 6000 g and 20° C. The particle free supernatant was diluted 1:1 with water. An aliquot was transferred to 200 μl sampler vials and subsequently subjected to LC MS with an injection volume of 20 pl. The brain samples were homogenized in PBS (1+1, w/v) using the Precellys 24/Dual homogenizer. A volume of 20 μl of the brain homogenate was mixed (1+1 v/v/) with 20 μl mouse blank plasma. Then 80 μl acetonitrile containing the internal standard (300 ng/ml Diazepam) were added. Samples were vigorously shaken and centrifuged for 10 minutes at 6000 g and 20° C. The particle free supernatant was diluted 1:1 with water. An aliquot was transferred to 200 μl sampler vials and subsequently subjected to LC MS with an injection volume of 20 μl. Mass spectrometry was performed on a TSQ Quantum Discovery Max triple quadrupole mass spectrometer equipped with an electrospray (ESI) interface (Thermo Fisher Scientific, USA) connected to a PC running the standard software Xcalibur 2.0.7. […]
# PPARγ = biological target: T4, PPARγ (Homo sapiens, UniProt P37231); assay: cell-based; assay type: cell-based; conditions: for EC50 PPARγ: i.a. = inactive; for activation at 10 µM: COS-7, read-out: PPARγ activation @10 μM, at 10 μM, compared to pioglitazone 1 μM
# T4 construct: expressed in transfected cells; host or cells: COS-7
# T4 sequence (P37231 238-503): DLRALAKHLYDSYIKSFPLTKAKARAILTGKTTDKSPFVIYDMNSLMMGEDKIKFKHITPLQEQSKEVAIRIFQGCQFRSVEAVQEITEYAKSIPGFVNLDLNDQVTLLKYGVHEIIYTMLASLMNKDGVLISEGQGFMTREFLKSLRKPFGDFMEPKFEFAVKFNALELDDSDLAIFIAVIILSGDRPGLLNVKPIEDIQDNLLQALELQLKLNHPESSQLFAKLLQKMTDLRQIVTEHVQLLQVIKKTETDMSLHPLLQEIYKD
# Protocol: COS-7 cells (PPAR) were grown in DMEM high glucose, supplemented with 10% fetal calf serum (FCS), 1% sodium pyruvate (SP) and 1% penicillin/streptomycin (PS) at 37° C. and 5% CO2. Used plasmids for PPAR transactivation assay are shown under supporting informations.
# The day before transfection, COS-7 cells were seeded in 96-well plates with a density of 30,000 cells per well. Transient transfection was carried out using Lipofectamine LTX reagent (Invitrogen, Carlsbad, Calif., USA) according to the manufacturer's protocol with pFR-Luc (Stratagene), pRL-SV40 (Promega) and the Ga14-fusion receptor plasmids (pFA-CMV-hPPAR-LBD) of the respective PPAR subtype. 5 h after transfection, medium was changed to DMEM without phenol red and 10% FCS, supplemented with 1% SP, 1% PS and 1% L-glutamine, now additionally containing 0.1% DMSO and the respective test compound or 0.1% DMSO alone as untreated control. Each concentration was tested in triplicate wells and each experiment was repeated independently at least three times. Following overnight incubation with the test compounds, cells were assayed for luciferase activity using Dual-Glo™ Luciferase Assay System (Promega) according to the manufacturer's protocol. Luminescence was measured with an Infinite m200 luminometer (Tecan Deutschland GmbH). Each concentration of the compounds was tested in triplicate wells. Normalization for transfection efficacy and cell growth was done by division of the firefly luciferase data by renilla luciferase data resulting in relative light units. Activation factors were obtained by dividing by DMSO control. […] All compounds were evaluated by comparison of the achieved maximum effect to that of the reference compound (pioglitazone for PPARγ, GW7647 for PPARa, and L165041 for PPARS each with 1 μM). Data are expressed as mean±SE; n≥3.
# The Gal4-fusion receptor plasmids pFA-CMV-PPARa-LBD, pFA-CMV-PPARS-LBD and pFA-CMV-PPARγ-LBD containing the hinge region and ligand binding domain (LBD) for each of the PPAR subtypes, respectively, were constructed by integrating cDNA fragments obtained from PCR amplification of human monocytes into the SmaI/XbaI cleavage site of the pFA-CMV vector (Stratagene, La Jolla, Calif., USA) and have already been published. […] Frame and sequence of the fusion receptors were verified by sequencing. pFR-Luc (Stratagene) was used as reporter plasmid and pRL-SV40 (Promega) for normalization of transfection efficacy and cell growth.
# [3] = Water solubility approximation; assay type: physicochemical; conditions: PBS with 0.01% Polysorbate 20, aqueous with cosolvent or surfactant or cyclodextrin, kinetic from dmso stock; PBS pH 7.4, 0.01% Polysorbate 20, 1% DMSO; precipitation at 650 nm; read-out: w.s. (water solubility)
# Protocol: PBS at pH 7.4 with 0.01% Polysorbate 20 (Tween) was combined with 1% of a DMSO solution of the inquired compound in a 96-well transparent flat bottom microtiter plate. Precipitation of the compound was measured at 650 nm with a Tecan Infinite 200 (Tecan Group Ltd, Mannedorf, Switzerland).
# [4] = read-out: sEH IC50 / inhibitory potency (unit inferred)
SMILES,IC50 (recombinant human sEH; read-out: IC50 sEH (converted)),EC50 PPARα (PPARα; i.a. = inactive),EC50 PPARδ (PPARδ; i.a. = inactive),EC50 PPARγ (PPARγ),solubility [3],activation at 10 µM (PPARγ),also measured
"O=C(Nc1ccc(I)cc1)NC1CCCCC1 [CIU, N-cyclohexyl-N′-iodophenyl urea, reference compound]",,,,,,,adipocyte differentiation (Oil-Red O) (3T3-L1 fibroblasts): able to start adipocyte differentiation; adipocyte differentiation (Oil-Red O) [1]: not able to start differentiation
"CCOC(=O)C(CC)Cc1ccc(C(=O)NCc2ccccc2C(F)(F)F)cc1 (stereo not drawn) [Compound 1b, Ethyl 2-ethyl 3-[4-(N-((2-trifluoromethyl)benzyl)benzamide)]propanoate]",44 ± 5 nM,i.a.,i.a.,,,,1b in plasma [2]: not detected
"CCOC(=O)C(CC)Cc1ccc(C(=O)NCc2ccccc2Br)cc1 (stereo not drawn) [Compound 5b, Ethyl 2-ethyl 3-[4-(N-((2-bromo)benzyl)benzamide)]propanoate]",,n.t. i.a. i.a. n.t.,n.t. i.a. i.a. n.t.,i.a.,25 µM,,
"CON(C)C(=O)C1CC1c1ccc(C(=O)NCc2ccccc2C(F)(F)F)cc1 (stereo not drawn) [Compound 21, N-Methoxy-N-methyl 3-[4-(N-((2-trifluoromethyl)benzyl)benzamide)]cyclopropanecarboxamide]",80 ± 4 nM,i.a.,i.a.,,,30%,sEH IC50 / inhibitory potency (unit not given) (recombinant human sEH): double-digit nanomolar range
O=C(O)c1ccc(-c2ccc(C(=O)NCc3ccccc3C(F)(F)F)cc2)cc1 [Compound 25],170 nM,,,,5 µM,~30%,EC50 PPARα (PPARα): i.a.; EC50 PPARδ (PPARδ): i.a.
O=C(O)c1cccc(-c2ccc(C(=O)NCc3ccccc3C(F)(F)F)cc2)c1 [Compound 26],,,,,,~30%,IC50 (recombinant human sEH; [4]): 1000 nM; EC50 PPARα (PPARα): i.a.; EC50 PPARδ (PPARδ): i.a.
"N#Cc1ccc(C(=O)NCc2ccccc2C(F)(F)F)cc1 [Compound 27, 4-Cyano-N-(2-(trifluoromethyl)benzyl)benzamide]",,remained unaffected,remained unaffected,remained unaffected,,,IC50 (recombinant human sEH; [4]): 64 nM
"O=C(NCc1ccccc1C(F)(F)F)c1ccc(-c2nnn[nH]2)cc1 [Compound 28, [N-(2-(Trifluoromethyl)benzyl)benzamid]-4-(1H-tetrazole)]",5000 nM,i.a.,i.a.,i.a.,500 µM,,
